Measurements reported in patent publication US8815909B2, “Diaminocyclohexane compounds and uses thereof” (Bristol-Myers Squibb Company, priority 2011, dated 2014).

Molecular target: T1, human Y4 receptor (Homo sapiens, UniProt P50391)
T1 construct: expressed in transfected cells
Assay: NPY4 cAMP HTRF Agonist Assay (inhibitory cAMP assay, Gi activation by Y4 agonism)
Assay type: cell-based
Conditions: TABLE 2, R2 is Phenyl-CN; read-out: hY4 CAMP EC50
In short: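 Y4 agonism read as lowered forskolin-stimulated cAMP (HTRF, 1 h detection at room temperature). Stable human Y4 CHO clone, 5000 cells/well, incubated 30 min at room temperature with compounds plus forskolin and IBMX in PBS.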

T1 sequence (P50391 whole entry): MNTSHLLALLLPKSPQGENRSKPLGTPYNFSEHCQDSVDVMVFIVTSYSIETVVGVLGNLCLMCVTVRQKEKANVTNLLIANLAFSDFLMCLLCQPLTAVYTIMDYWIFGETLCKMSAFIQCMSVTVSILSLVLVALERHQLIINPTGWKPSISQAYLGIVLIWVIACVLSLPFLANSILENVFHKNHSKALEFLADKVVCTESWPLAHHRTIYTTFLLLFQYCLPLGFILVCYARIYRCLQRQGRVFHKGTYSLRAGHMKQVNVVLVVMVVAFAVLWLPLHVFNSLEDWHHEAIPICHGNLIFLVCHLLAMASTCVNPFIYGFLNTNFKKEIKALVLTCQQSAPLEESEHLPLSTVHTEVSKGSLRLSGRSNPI

Compound | EC50
N#Cc1ccc(N2CCC[C@H](N[C@@H]3CCCC[C@H]3Nc3cc(-c4ccc5nccnc5c4)ccn3)C2)cc1 [Example 221] | 77 nM
N#Cc1ccc(N2C[C@@H]3C[C@H](N[C@@H]4CCCC[C@H]4Nc4ncc(-c5cccc(C#N)c5)o4)[C@H]2C3)cc1 [Example 266] | 181 nM
COc1ccc(-c2ccnc(N[C@@H]3CCCC[C@H]3N[C@H]3CCCN(c4ccc(C#N)cc4)C3)c2)cc1 [Example 219] | 45 nM
N#Cc1ccc(N2CCC[C@H](N[C@@H]3CCCC[C@H]3Nc3cc(-c4cc(C#N)cs4)ccn3)C2)cc1 [Example 269] | 223 nM
CNC(=O)c1cccc(-c2ccnc(N[C@@H]3CCCC[C@H]3N[C@H]3CCCN(c4ccc(C#N)cc4)C3)c2)c1 [Example 261] | 9 nM

Now from value to molecule:

EC50 | Compound
299 nM | N#Cc1ccc(N2CCC[C@H](N[C@@H]3CCCC[C@H]3Nc3cc(Cc4ccccc4)ccn3)C2)cc1 [Example 245]
299 nM | C=C(C)c1ccnc(N[C@@H]2CCCC[C@H]2N[C@H]2CCCN(c3ccc(C#N)cc3)C2)c1 [Example 234]
272 nM | N#Cc1ccc(N2CCC[C@H](N[C@@H]3CCCC[C@H]3Nc3cc(-c4ccccc4C#N)ccn3)C2)cc1 [Example 274]

Same assay, conditions: TABLE 3, R2 is Phenyl-NO2; read-out: hY4 CAMP EC50

EC50 | Compound
68 nM | O=[N+]([O-])c1ccc(N2C[C@@H]3C[C@H](N[C@@H]4CCCC[C@H]4Nc4cc(-c5ccc(OC(F)(F)F)cc5)ncn4)[C@H]2C3)cc1 [Example 296]
74 nM | O=[N+]([O-])c1ccc(N2CCC[C@H](N[C@@H]3CCCC[C@H]3NC3=NOC(c4ccccc4)C3)C2)cc1 (stereo partly shown) [Example 286]
122 nM | O=[N+]([O-])c1ccc(N2C[C@@H]3C[C@H](N[C@@H]4CCCC[C@H]4Nc4cc(Cl)ncn4)[C@H]2C3)cc1 [Example 295]

Same assay, conditions: TABLE 4, R2 is Pyridinyl-CN; read-out: hY4 CAMP EC50

EC50 | Compound
124 nM | N#Cc1cc(N2C[C@@H]3C[C@H](N[C@@H]4CCCC[C@H]4Nc4ncc(-c5ccc(OC(F)(F)F)cc5)o4)[C@H]2C3)ccn1 [Example 310]
130 nM | N#Cc1ccc(N2CCC[C@H](N[C@@H]3CCCC[C@H]3Nc3cc(-c4cccc(C(N)=O)c4)ccn3)C2)nc1 [Example 300]

Same assay, conditions: TABLE 5, R2 is Pyridinyl-CF3; read-out: hY4 CAMP EC50

EC50 | Compound
212 nM | FC(F)(F)Oc1ccc(-c2cnc(N[C@@H]3CCCC[C@H]3N[C@H]3CCCN(c4ccnc(C(F)(F)F)c4)C3)o2)cc1 [Example 336]
1600 nM | COc1ccc(-c2cnc(N[C@@H]3CCCC[C@H]3N[C@H]3CCCN(c4ccc(C(F)(F)F)nc4)C3)o2)cc1C#N [Example 335]

Same assay, conditions: TABLE 7, R2 is Pyridinyl-oxadiazole-CH3; read-out: hY4 CAMP EC50

EC50 | Compound
3 nM | Cc1nc(-c2ncc(N3CCC[C@H](N[C@@H]4CCCC[C@H]4Nc4ncc(-c5cccc(C(N)=O)c5)o4)C3)cn2)no1 [Example 390]

Same assay, conditions: human Y4 receptor, cAMP; read-out: hY4 CAMP EC50

Compound | EC50
FC(F)(F)Oc1ccc(-c2cnc(N[C@@H]3CCCC[C@H]3N[C@H]3CCCN(c4cnc(C(F)(F)F)nc4)C3)o2)cc1 [Example 401] | 1480 nM
Cc1nnc(-c2ccc(N3CCCC(N[C@@H]4CCCC[C@H]4Nc4cc(-c5ccccc5F)ccn4)C3)cc2)o1 (stereo partly shown) [Example 367] | 9 nM
Cn1nnc(-c2ccc(N3CCC[C@H](N[C@@H]4CCCC[C@H]4Nc4cc(Br)ccn4)C3)cc2)n1 [Example 501] | 84 nM
N#Cc1cnc(N2CCC[C@H](N[C@@H]3CCCC[C@H]3Nc3cc(-c4cccc(C(N)=O)c4)ccn3)C2)nc1 [Example 430] | 142 nM
NC(=O)c1cc(-c2cnc(N[C@@H]3CCCC[C@H]3N[C@H]3CCCN(c4cnc(C(F)(F)F)nc4)C3)o2)ccn1 [Example 425] | 15 nM
NC(=O)c1cccc(-c2ccnc(N[C@@H]3CCCC[C@H]3N[C@H]3CCCN(c4ccc5ncnn5c4)C3)c2)c1 [Example 481] | 34 nM
Cc1nnc(-c2ccc(N3CCCC(N[C@@H]4CCCC[C@H]4Nc4cc(-c5cncc6ccccc56)ccn4)C3)cc2)o1 (stereo partly shown) [Example 371] | 18 nM
Cc1nc(-c2ccc(N3C[C@@H]4C[C@H](N[C@@H]5CCCC[C@H]5Nc5nccc(-c6ccccc6)n5)[C@H]3C4)cc2)no1 [Example 350] | 9 nM
C[C@]1(N[C@@H]2CCCC[C@H]2Nc2cc(-c3cccc(C(N)=O)c3)ccn2)CCCN(c2ccc(-c3noc(C4CC4)n3)nc2)C1 [Example 450] | 10 nM

Next, values leading:

EC50 | Compound
3 nM | Cc1nnc(-c2ccc(N3CCC[C@H](N[C@@H]4CCCC[C@H]4Nc4ncc(-c5ccccc5OC(F)(F)F)o4)C3)cc2)o1 [Example 348]
4 nM | C[C@]1(N[C@@H]2CCCC[C@H]2Nc2ncc(-c3cccc(C(N)=O)c3)o2)CCCN(c2ccc(C(=N)NC(=O)C3CC3)nc2)C1 [Example 445]
0.2 nM | CC(=O)Nc1cccc(-c2ccnc(N[C@@H]3CCCC[C@H]3N[C@H]3CCCN(c4ccc(-c5nnn(C)n5)cc4)C3)c2)c1 [Example 506]
1 nM | NC(=O)c1cccc(-c2cnc(N[C@@H]3CCCC[C@H]3N[C@H]3CCCN(c4ccc(OC(F)(F)F)cc4)C3)o2)c1 [Example 459]
17 nM | COC(=O)Nc1cccc(-c2ccnc(N[C@@H]3CCCC[C@H]3N[C@H]3CCCN(c4ccc(-c5ccccc5)cc4)C3)c2)c1 [Example 516]
48 nM | C[C@]1(N[C@H]2CCCC[C@@H]2Nc2cc(-c3cccc(C(N)=O)c3)ccn2)CCCN(c2cnc(C(F)(F)F)nc2)C1 [Example 418]
23 nM | Cc1noc(-c2ccc(N3CCC[C@H](N[C@@H]4CCCC[C@H]4Nc4cc(-c5cccc(C(C)(C)O)c5)ccn4)C3)cc2)n1 [Example 362]
96 nM | Cc1nc(-c2ncc(N3CCC[C@H](N[C@@H]4CCCC[C@H]4Nc4cc(C#N)ccn4)C3)cn2)no1 [Example 469]

Same assay, conditions: human Y4 stable CHO clonal cells, forskolin + IBMX; read-out: NPY4 cAMP HTRF Agonist Assay EC50

Compound | EC50
N#Cc1ccc(N2CCC[C@H](N[C@@H]3CCCC[C@H]3Nc3nccc(-c4cccc(OC(F)(F)F)c4)n3)C2)cc1 [Example 61, 4-((S)-3-((1R,2R)-2-(4-(3-(Trifluoromethoxy)phenyl)pyrimidin-2-ylamino)cyclohexylamino)piperidin-1-yl)benzonitrile bis-trifluoroacetate] | 861 nM
COC(=O)Nc1cccc(-c2cnc(N[C@@H]3CCCC[C@H]3N[C@H]3CCCN(c4cnc(C(F)(F)F)nc4)C3)o2)c1 [Example 103, Methyl (3-(2-((1R,2R)-2((S)-1-(2-trifluoromethyl)pyrimidin-5-yl)piperidin-3-ylamino)cyclohexylamino)oxazol-5-yl)phenylcarbamate] | 3 nM
NC(=O)c1cccc(-c2cnc(N[C@@H]3CCCC[C@H]3N[C@H]3CCCN(c4cnc(C(F)(F)F)nc4)C3)o2)c1 [Example 97, 3-(2-(((1R,2R)-2-(((S)-1-(2-(trifluoromethyl)pyrimidin-5-yl)piperidin-3-yl)amino)cyclohexyl)amino)oxazol-5-yl)benzamide] | 6 nM
O=[N+]([O-])c1cnc(N2CCC[C@H](N[C@@H]3CCCC[C@H]3Nc3ncc(-c4ccc(OC(F)(F)F)cc4)o3)C2)nc1 [Example 78, (1R,2R)—N1-((S)-1-(5-Nitropyrimidin-2-yl)piperidin-3-yl)-N2-(5-(4-(trifluoromethoxy)phenyl)oxazol-2-yl)cyclohexane-1,2-diamine bis-trifluoroacetate] | 75 nM
FC(F)(F)Oc1ccc(N2CCC[C@H](N[C@@H]3CCCC[C@H]3Nc3ncc(-c4ccccc4)o3)C2)cc1 [Example 86, (1R,2R)—N1-(5-Phenyloxazol-2-yl)-N2-((S)-1-(4-(trifluoromethoxy)phenyl)piperidin-3-yl)cyclohexane-1,2-diamine] | 91 nM

Now from value to molecule:

EC50 | Compound
6 nM | O=[N+]([O-])c1ccc(N2C[C@@H]3C[C@H](N[C@@H]4CCCC[C@H]4Nc4ncc(-c5ccccc5)o4)[C@H]2C3)cc1 [Example 6, (1R,2R)—N1-((1R,4R,6S)-2-(4-Nitrophenyl)-2-azabicyclo[2.2.1]heptan-6-yl)-N2-(5-phenyloxazol-2-yl)cyclohexane-1,2-diamine]
8 nM | O=[N+]([O-])c1ccc(N2C[C@@H]3C[C@H](N[C@@H]4CCCC[C@H]4Nc4ncc(-c5ccccc5F)o4)[C@H]2C3)cc1 [Example 15, (1R,2R)—N1-(5-(2-Fluorophenyl)oxazol-2-yl)-N2-((1R,4R,6S)-2-(4-nitrophenyl)-2-azabicyclo[2.2.1]heptan-6-yl)cyclohexane-1,2-diamine]
0.2 nM | CNC(=O)c1cccc(-c2cnc(N[C@@H]3CCCC[C@H]3N[C@H]3CCCN(c4ccc(C(F)(F)F)cc4)C3)o2)c1 [Example 105, N-Methyl (3-(2-((1R,2R)-2((S)-1-(4-trifluoromethyl)phenyl)piperidin-3-ylamino)cyclohexylamino)oxazol-5-yl)benzamide]

Same assay, conditions: second TABLE 1, R2 is Phenyl-CF3; read-out: hY4 CAMP EC50

Compound | EC50
FC(F)(F)c1ccc(N2CCC[C@H](N[C@@H]3CCCC[C@H]3Nc3cc(-c4ccc5c(c4)CNCC5)ccn3)C2)cc1 [Example 146] | 726 nM
CC(C)CNC(=O)c1cccc(-c2ccnc(N[C@@H]3CCCC[C@H]3N[C@H]3CCCN(c4ccc(C(F)(F)F)cc4)C3)c2)c1 [Example 148] | 205 nM
CC(=O)N(C)c1cccc(-c2ccnc(N[C@@H]3CCCC[C@H]3N[C@H]3CCCN(c4ccc(C(F)(F)F)cc4)C3)c2)c1 [Example 174] | 363 nM
CNCc1cccc(-c2ccnc(N[C@@H]3CCCC[C@H]3N[C@H]3CCCN(c4ccc(C(F)(F)F)cc4)C3)c2)c1 [Example 144] | 26 nM

Now from value to molecule:

EC50 | Compound
218 nM | CCCC#Cc1ccnc(N[C@@H]2CCCC[C@H]2N[C@H]2CCCN(c3ccc(C(F)(F)F)cc3)C2)c1 [Example 185]
1110 nM | CN(C)Cc1cccc(-c2ccnc(N[C@@H]3CCCC[C@H]3N[C@H]3CCCN(c4ccc(C(F)(F)F)cc4)C3)c2)c1 [Example 131]
70 nM | N#Cc1cnc(N[C@@H]2CCCC[C@H]2N[C@H]2CCCN(c3ccc(C(F)(F)F)cc3)C2)s1 [Example 193]
9 nM | CCNC(=O)c1cccc(-c2ccnc(N[C@@H]3CCCC[C@H]3N[C@H]3CCCN(c4ccc(C(F)(F)F)cc4)C3)c2)c1 [Example 138]
